Assay results published in patent publication US8987335B2, “Substituted (E)-N′-(1-phenylethylidene)benzohydrazide analogs as histone demethylase inhibitors” (University of Utah Research Foundation, priority 2011, dated 2015).

Tests used:
LSD1 = LSD1 (Homo sapiens (Human), UniProt O60341); assay: LSD1 Histone Demethylase Assay (LSD1 Inhibitor Screening Assay Kit); format: biochemical; settings: for LSD1 biochemical activity (in words): SAR discussion
Description: Briefly, test compounds were diluted to 20× the desired test concentration in 100% DMSO and 2.5 μL of the diluted drug sample was added to a black 384-well plate. The LSD1 enzyme stock was diluted 17-fold with assay buffer and 40 μM of the diluted LSD1 enzyme was added to the appropriate wells.
(§1) IC50 values are determined using GraphPad Prism 5 software. The data were entered as an X-Y plot into the software as percent inhibition for each concentration of the drug. The concentration values of the drug were log transformed and the nonlinear regression was carried out using the “sigmoidal dose-response (variable slope)” option within the GraphPad software to model the data and calculate IC50 values.

T-47D cells = assay: Cell Viability Assay (ATPlite), T-47D; format: cell-based; settings: Homo sapiens, T47D, 96-hours of incubation, read-out: Cell Growth, IC50
Description: Cells were cultured according to the procedures provided. […] Cells were cultured at 37° C. and 5% CO2.
as §1

MAO A = MAO A (Homo sapiens (Human), UniProt P21397); assay: Monoamine Oxidase assay (MAO-Glo), MAO A; format: biochemical
MAO A, sequence (P21397 whole entry): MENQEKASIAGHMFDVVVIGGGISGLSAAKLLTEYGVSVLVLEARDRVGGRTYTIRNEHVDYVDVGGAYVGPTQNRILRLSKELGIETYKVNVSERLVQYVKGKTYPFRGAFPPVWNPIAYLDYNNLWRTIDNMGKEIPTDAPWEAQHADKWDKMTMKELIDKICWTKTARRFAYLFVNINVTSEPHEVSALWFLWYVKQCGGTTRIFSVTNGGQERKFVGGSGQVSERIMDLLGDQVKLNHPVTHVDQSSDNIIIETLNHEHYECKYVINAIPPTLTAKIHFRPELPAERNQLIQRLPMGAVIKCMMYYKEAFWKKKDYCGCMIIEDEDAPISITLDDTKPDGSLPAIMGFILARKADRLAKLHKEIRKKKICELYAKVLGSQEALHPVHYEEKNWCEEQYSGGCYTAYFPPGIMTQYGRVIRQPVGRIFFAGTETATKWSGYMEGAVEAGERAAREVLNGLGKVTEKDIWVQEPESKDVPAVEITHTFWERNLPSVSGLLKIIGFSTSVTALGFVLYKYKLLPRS
Description: (§2) Recombinant (expressed in baculovirus infected BTI insect cells) monoamine oxidase A and monoamine oxidase B (Catalog No. M7316 and M7441, respectively) were purchased from Sigma-Aldrich Co. LLC. […] MAO-Glo™ Assay Kit was purchased from Promega Corporation (Madison, Wis.).
(§3) Briefly, 6.25 μL of test compound was added to each well of a 384-well plate. Enzyme (either MAO A or B) was added (12.5 μL in 2× buffer containing 1 μg protein) and allowed to incubate for 5 minutes. Finally, 6.25 μL of 4×MAO substrate was added to each well. Following a one hour incubation, 25 μL of Luciferin detection reagent was added to each well, and incubated for 20 minutes. Luminescence was then measured on an Envision microplate reader.
as §1

MAO B = MAO B (Homo sapiens (Human), UniProt P27338); assay: Monoamine Oxidase assay (MAO-Glo), MAO B; format: biochemical
MAO B, sequence (P27338 whole entry): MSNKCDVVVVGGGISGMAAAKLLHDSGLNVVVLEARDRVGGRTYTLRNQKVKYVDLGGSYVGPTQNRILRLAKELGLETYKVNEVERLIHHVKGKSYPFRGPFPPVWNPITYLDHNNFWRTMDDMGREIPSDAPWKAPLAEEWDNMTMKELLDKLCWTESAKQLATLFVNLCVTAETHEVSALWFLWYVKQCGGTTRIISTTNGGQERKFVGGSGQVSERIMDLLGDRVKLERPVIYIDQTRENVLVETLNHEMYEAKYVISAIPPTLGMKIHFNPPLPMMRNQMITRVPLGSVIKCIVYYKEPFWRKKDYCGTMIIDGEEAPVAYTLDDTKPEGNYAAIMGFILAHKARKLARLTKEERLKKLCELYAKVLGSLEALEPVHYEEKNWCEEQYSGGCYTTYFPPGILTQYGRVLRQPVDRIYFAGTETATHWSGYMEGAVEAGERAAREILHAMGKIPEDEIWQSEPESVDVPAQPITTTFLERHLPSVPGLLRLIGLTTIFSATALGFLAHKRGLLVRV
Description: as §2, §3, §1

MDA-MB-235 = assay: Cell Viability Assay (ATPlite), MDA-MB-235; format: cell-based; settings: 96-hours of incubation, read-out: Cell Growth, IC50
Description: Cancer cell lines were obtained from ATCC. Cells were cultured according to the procedures provided. In addition to the supplements indicated in Table 4, media were also supplemented with 1% penicillin/streptomycin (100 IU/mL penicillin and 100 μg/mL streptomycin). Cells were cultured at 37° C. and 5% CO2. ATCC is the American Type Culture Collection (Manassas, Va.).
Cell viability was determined using ATPlite™ Luminescence Assay System (PerkinElmer Inc., Waltham, Mass.) using the various cell-lines described above and in Table 4. Briefly, cells were seeded in 96-well plates and then treated with different concentrations of inhibitor (0.1% final DMSO concentration). After 96-hours of incubation, ATPlite detection reagent was added directly to the culture well. Luminescence was read 5 minutes later on an Envision microplate reader.

Compound | LSD1 biochemical activity (in words) (LSD1) | IC50 (T-47D cells) [nM] | also measured
C/C(=N\NC(=O)c1cnc(Cl)c(Br)c1)c1cc(Cl)ccc1O [Compound 19, (E)-5-bromo-6-chloro-N′-(1-(5-chloro-2-hydroxyphenyl)ethylidene)nicotinohydrazide] | drop in biochemical activity | 1380 | 
C/C(=N\NC(=O)c1cccc(S(=O)(=O)N2CCOCC2)c1)c1ccnc(Cl)c1 [Compound 15, (E)-N′-(1-(2-chloropyridin-4-yl)ethylidene)-3-(morpholinosulfonyl)benzohydrazide] | drop in biochemical activity | > 10000 | 
C/C(=N\NC(=O)c1cncc(S(C)(=O)=O)c1)c1cc(Cl)ccc1O [Compound 24, (E)-N′-(1-(5-chloro-2-hydroxyphenyl)ethylidene)-5-(methylsulfonyl)nicotinohydrazide] |  |  | activity against MAO A (in words) (MAO A): no activity; activity against MAO B (in words) (MAO B): no activity
N[C@@H]1CC1c1ccccc1 (stereo partly drawn) [tranylcypromine, reference compound] |  |  | activity against MAO A (in words) (MAO A): exhibited activity; activity against MAO B (in words) (MAO B): exhibited activity
C/C(=N\NC(=O)c1cccc(S(=O)(=O)N2CCOCC2)c1)c1cc(Cl)ccc1O [Compound 12, (E)-N′-(1-(5-chloro-2-hydroxyphenyl)ethylidene)-3-(morpholinosulfonyl)benzohydrazide] |  |  | IC50 (MAO A): > 300000 nM; IC50 (MAO B): > 300000 nM; IC50 (MDA-MB-235): 728 nM
O=C(NNC(=O)c1cc(S(=O)(=O)N2CCOCC2)ccc1F)c1cccc(Cl)c1 [Compound 7] |  | > 10000 | 
CCN(CC)S(=O)(=O)c1ccc(F)c(C(=O)NNC(=O)c2ccc(C)cc2)c1 [Compound 8] | lower activity | > 10000 | 
C/C(=N\NC(=O)c1cccc(S(=O)(=O)N2CCOCC2)c1)c1cc(Cl)ccc1Cl [Compound 16, (E)-N′-(1-(2,5-dichlorophenyl)ethylidene)-3-(morpholinosulfonyl)benzohydrazide] | significant drop in activity | > 10000 | LSD1 biochemical activity (in words) (LSD1; listed as compound 16): activity was decreased
CC/C(=N\NC(=O)c1cccc(S(=O)(=O)N2CCOCC2)c1)c1cc(Cl)ccc1O [Compound 21, (E)-N′-(1-(5-chloro-2-hydroxyphenyl)propylidene)-3-(morpholinosulfonyl)benzohydrazide] |  | 616 | 
C/C(=N\NC(=O)c1cncc(Cl)c1)c1cc(Cl)ccc1O [Compound 20, (E)-5-chloro-N′-(1-(5-chloro-2-hydroxyphenyl)ethylidene)nicotinohydrazide] | drop in biochemical activity | 270 | 
C/C(=N\NC(=O)c1ccc(Cl)c(Br)c1)c1cc(Cl)ccc1O [Compound 17, (E)-3-bromo-4-chloro-N′-(1-(5-chloro-2-hydroxyphenyl)ethylidene)benzohydrazide] | drop in biochemical activity | 1700 | 
O=C(N/N=C/c1ccccc1O)c1ccc(O)cc1 [Compound 1] |  |  | activity against MAO A (in words) (MAO A): no activity; activity against MAO B (in words) (MAO B): comparable activity to tranylcypromine
COc1ccc(Cl)cc1C(=O)NNC(=O)c1cc(S(=O)(=O)N2CCOCC2)ccc1F [Compound 6] | lack of biochemical activity | > 10000 | 
C/C(=N\NC(=O)c1cccc(S(=O)(=O)N2CCOCC2)c1)c1cccc2ccccc12 [Compound 10] | lower activity | > 10000 | IC50 (LSD1): > 10000 nM
C/C(=N\NC(=O)c1cccc(S(=O)(=O)N2CCOCC2)c1)c1cccnc1 [Compound 22, (E)-3-(morpholinosulfonyl)-N′-(1-(pyridin-3-yl)ethylidene)benzohydrazide] | drop in biochemical activity |  | 
